In article PMC8338929, “Acetylation turns leucine into a drug by membrane transporter switching” (Scientific Reports, 2021):
pIC50: −log10 of the molar value.

Experiments:
Format in all cases: cell-based
Human OAT1 (SLC22A6) [1] = biological target: T1, Human OAT1 (SLC22A6) (Homo sapiens, UniProt Q4U2R8); assay: OAT1-mediated cellular uptake in overexpressing HEK-293 cells
T1 construct: host or cells: HEK-293
T1 sequence (Q4U2R8 1-563): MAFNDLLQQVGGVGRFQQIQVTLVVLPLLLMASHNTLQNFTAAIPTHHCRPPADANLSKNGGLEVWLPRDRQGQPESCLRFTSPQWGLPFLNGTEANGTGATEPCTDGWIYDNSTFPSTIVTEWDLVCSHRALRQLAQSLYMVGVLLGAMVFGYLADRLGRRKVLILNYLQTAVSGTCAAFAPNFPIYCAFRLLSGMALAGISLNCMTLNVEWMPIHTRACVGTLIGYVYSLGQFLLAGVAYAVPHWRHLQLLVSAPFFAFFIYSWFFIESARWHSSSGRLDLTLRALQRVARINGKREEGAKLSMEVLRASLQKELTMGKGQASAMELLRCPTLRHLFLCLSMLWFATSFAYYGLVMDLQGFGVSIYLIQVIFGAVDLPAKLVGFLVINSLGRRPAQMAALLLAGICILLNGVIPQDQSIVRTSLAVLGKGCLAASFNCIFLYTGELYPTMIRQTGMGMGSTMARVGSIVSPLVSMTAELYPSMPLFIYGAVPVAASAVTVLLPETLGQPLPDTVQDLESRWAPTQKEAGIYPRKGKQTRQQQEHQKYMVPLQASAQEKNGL
Protocol: (§1) Cells were grown in DMEM (Gibco 4196, high glucose, without sodium pyruvate) supplemented with MEM non-essential amino acids and 10% fetal bovine serum. Cells were re-fed with fresh medium after attachment (4–6 h post-seeding). Cell were plated at a density of 4 × 10^5/well in 24-well plates coated with poly-D-lysine. Transporter assays were conducted in 400 µL of HBSS supplemented with 10 mM Hepes, pH 7.4
The known probe substrates used as positive controls were 3 μM chlorothiazide for OAT1, 2 μM estrone-3-sulfate for OAT3, 10 µM [^3H]gabapentin for LAT1, 50 µM [^3H]Gly-Sar for PepT1, 500 µM thiophene-2-glyoxylic acid for MCT1. The known inhibitors used as controls for each transporter were 100 μM diclofenac for OAT1 and OAT3, 10 µM JPH203 for LAT1 and 200 µM losartan for PepT1. All incubations were in triplicate and contained 1% (OAT1 and OAT3) or 0.5% DMSO (LAT, PepT1 and MCT1). The duration of uptake was 5 min for OAT1 and OAT3, 3 min for LAT1 and PepT1 and 1 min for MCT1. Assays were performed at 37 °C with no shaking, except MCT1 at room temperature. To determine uptake due to the overexpressed transporter per se, uptake was taken as the difference between accumulation between transfected and nontransfected cells in parallel experiments at the same concentration and time. To terminate uptake the plate was placed on ice and cells washed twice with ice-cold transport buffer. […]

Human OAT1 (SLC22A6) [2] = biological target: T1, Human OAT1 (SLC22A6); assay: Inhibition of OAT1 uptake of probe substrate chlorothiazide in HEK-293 cells; conditions: probe chlorothiazide 3 µM; positive control diclofenac 100 µM
Protocol: as §1
(§2) The known probe substrates used as positive controls were 3 μM chlorothiazide for OAT1, 2 μM estrone-3-sulfate for OAT3, 10 µM [^3H]gabapentin for LAT1, 50 µM [^3H]Gly-Sar for PepT1, 500 µM thiophene-2-glyoxylic acid for MCT1. The known inhibitors used as controls for each transporter were 100 μM diclofenac for OAT1 and OAT3, 10 µM JPH203 for LAT1 and 200 µM losartan for PepT1. All incubations were in triplicate and contained 1% (OAT1 and OAT3) or 0.5% DMSO (LAT, PepT1 and MCT1). […]
(§3) [I] is the inhibitor concentration and IC50 is the inhibitor concentration where the remaining activity is at the midpoint between the Top and Bottom. […] In inhibition experiments, the IC50 is not equivalent to affinity because it is dependent on the concentrations of the substrate, the inhibitor and affinity; therefore, we assumed competitive inhibition, and calculated affinity of inhibition (Ki) with the Cheng-Prusoff equation[49].

Human OAT3 (SLC22A8) = biological target: T2, Human OAT3 (SLC22A8) (Homo sapiens, UniProt Q8TCC7); assay: Inhibition of OAT3 uptake of probe substrate estrone-3-sulfate in HEK-293 cells; conditions: probe estrone-3-sulfate 2 µM; positive control diclofenac 100 µM
T2 construct: host or cells: HEK-293
T2 sequence (Q8TCC7 1-542): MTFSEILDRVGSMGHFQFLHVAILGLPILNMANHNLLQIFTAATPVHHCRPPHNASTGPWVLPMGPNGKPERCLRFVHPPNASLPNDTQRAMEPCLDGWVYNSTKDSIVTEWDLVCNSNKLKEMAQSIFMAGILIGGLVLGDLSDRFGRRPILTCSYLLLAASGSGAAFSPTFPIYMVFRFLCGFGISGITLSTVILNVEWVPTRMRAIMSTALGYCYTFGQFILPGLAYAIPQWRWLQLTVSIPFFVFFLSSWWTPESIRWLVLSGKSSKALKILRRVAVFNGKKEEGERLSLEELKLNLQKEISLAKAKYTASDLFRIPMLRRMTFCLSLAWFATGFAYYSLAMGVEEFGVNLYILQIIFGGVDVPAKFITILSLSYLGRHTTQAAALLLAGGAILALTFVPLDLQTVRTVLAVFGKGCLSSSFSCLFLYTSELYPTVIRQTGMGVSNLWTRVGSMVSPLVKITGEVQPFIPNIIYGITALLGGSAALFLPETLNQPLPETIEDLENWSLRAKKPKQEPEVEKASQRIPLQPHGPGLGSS
Protocol: as §1, §2, §3

SMILES: CC(=O)N[C@@H](CC(C)C)C(=O)O [N-acetyl-L-leucine]
- Vmax OAT1 uptake (Human OAT1 (SLC22A6) [1]; Michaelis-Menten fit): 173
- substrate of OAT1 (uptake) (Human OAT1 (SLC22A6) [1]; pH 7.4, 5 min): substrate
- pIC50 (Human OAT1 (SLC22A6) [2]): 2.21
- pIC50 (Human OAT3 (SLC22A8)): 3.15
